The assay concerns potato leafhopper (Empoasca fabae). Nature of the assay: Test D: control of potato leafhopper on Soleil bean plant, contact and/or systemic. Format: in vivo. The settings on record: 144 h, 6 days, very good to excellent control, read-out: control efficacy: mortality; for mortality at 250 ppm: sprayed at 250 ppm; for mortality at 50 ppm: sprayed at 50 ppm. The protocol: Test compounds were formulated using a solution containing 10% acetone, 90% water and 300 ppm X-77® Spreader Lo-Foam Formula non-ionic surfactant containing alkylarylpolyoxyethylene, free fatty acids, glycols and isopropanol (Loveland Industries, Inc. Greeley, Colo., USA). The formulated compounds were applied in 1 mL of liquid through a SUJ2 atomizer nozzle with ⅛ JJ custom body (Spraying Systems Co., Wheaton, Ill., USA) positioned 1.27 cm (0.5 inches) above the top of each test unit. Test compounds were sprayed at 250 ppm and/or 50 ppm, and replicated three times. After spraying of the formulated test compound, each test unit was allowed to dry for 1 h and then a black, screened cap was placed on top. The test units were held for 6 days in a growth chamber at 25° C. and 70% relative humidity. Plant feeding damage was then visually assessed based on foliage consumed.
For evaluating control of potato leafhopper (Empoasca fabae) through contact and/or systemic means, the test unit consisted of a small open container with a 5-6-day-old Soleil bean plant (primary leaves emerged) inside. White sand was added to the top of the soil and one of the primary leaves was excised prior to application.
Test compounds were formulated and sprayed at 250 ppm and/or 50 ppm, and the tests were replicated three times as described for Test A. After spraying, the test units were allowed to dry for 1 h before they were post-infested with 5 potato leafhoppers (18-21-day-old adults). A black, screened cap was placed on the top of each test unit, and the test units were held for 6 days in a growth chamber at 24° C. and 70% relative humidity. Each test unit was then visually assessed for insect mortality.

With `N#CC1CCN(Cc2c(-c3ccc(F)cc3F)nc3n2CCc2cc(Cl)ccc2-3)CC1` [Compound 155], the mortality at 250 ppm is ≥ 80%.

Consider `COC(=O)C1CCN(Cc2cc(-c3cccc(C(F)(F)F)c3)nn2-c2ccc(F)cc2)CC1` [Compound 6, methyl 1-[[1-(4-fluorophenyl)-3-[3-(trifluoromethyl)phenyl]-1H-pyrazol-5-yl]methyl]-4-piperidinecarboxylate], for which the mortality at 50 ppm is ≥ 80% and the mortality at 250 ppm is ≥ 80%.

As to `Cn1c(-c2cccc(C(F)(F)F)c2)nc(CN2CCOCC2)c1-c1ccc(F)cc1F` (single isomer, unassigned) [Compound 49, 4-[[5-(2,4-difluorophenyl)-1-methyl-2-[3-(trifluoromethyl)phenyl]-1H-imidazol-4-yl]methyl]morpholine], the mortality at 250 ppm is ≥ 80%.

With `Fc1ccc(-c2[nH]c(-c3cccc(C(F)(F)F)c3)nc2CN2CCOCC2)c(F)c1` [Compound 44, 4-[[5-(2,4-difluorophenyl)-2-[3-(trifluoromethyl)phenyl]-1H-imidazol-4-yl]methyl]morpholine], the mortality at 50 ppm was ≥ 80% and the mortality at 250 ppm was ≥ 80%.

Take `CC(=O)NC1CCN(Cc2oc(-c3cccc(C(F)(F)F)c3)nc2-c2ccc(F)cc2)CC1` [Compound 65, N-[1-[[4-(4-fluorophenyl)-2-[3-(trifluoromethyl)phenyl]-5-oxazolyl]methyl]-4-piperidinyl]acetamide]: the mortality at 50 ppm is ≥ 80% and the mortality at 250 ppm was ≥ 80%.

Regarding `N#CC1CCN(Cc2c(-c3ccc(F)cc3F)nc3n2CCc2ccc(Cl)cc2-3)CC1` [Compound 151], the mortality at 250 ppm was ≥ 80%.

The values are drawn from patent US20150126364A1, “1,3-DIARYL-SUBSTITUTED HETEROCYCLIC PESTICIDES” (E I DU PONT DE NEMOURS AND COMPANY, priority 2012, published 2015).
